Experimental data from patent US8889874B2, “Imidazolone-chalcone derivatives as potential anticancer agent and process for the preparation thereof” (Council of Scientific and Industrial Research, priority 2010, dated 2014).
Read-outs that look alike come from different tables or passages of the source.

How the values were obtained:
Assay type in all cases: cell-based, human
[1] = test system: Melanoma cancer cell lines; experiment: NCI anticancer screen, SRB assay, panel summary; conditions: for GI50: Homo sapiens
How it was run: (§1)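 Sulforhodamine B protein assay read cell growth after 48 h of continuous compound exposure. Dose-response curves per cell line used at least five 10-fold-diluted concentrations, within a panel of fifty-three human lines from nine tumour types.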

Breast cancer cell lines = experiment: NCI anticancer screen, SRB assay, panel summary; conditions: Homo sapiens
How it was run: as §1

[2] = test system: Non-small cell lung cancer cell lines; experiment: NCI anticancer screen, SRB assay, panel summary; conditions: Homo sapiens
How it was run: as §1

[3] = test system: Prostate cancer cell lines; experiment: NCI anticancer screen, SRB assay, panel summary
How it was run: as §1

CNS cancer cell lines = experiment: NCI anticancer screen, SRB assay, panel summary; conditions: for GI50: Homo sapiens
How it was run: as §1

[4] = test system: Ovarian cancer cell lines; experiment: NCI anticancer screen, SRB assay, panel summary; conditions: Homo sapiens
How it was run: as §1

[5] = test system: Leukemia cancer cell lines; experiment: NCI anticancer screen, SRB assay, panel summary; conditions: Homo sapiens
How it was run: as §1

Colon cancer cell lines = experiment: NCI anticancer screen, SRB assay, panel summary; conditions: for GI50: Homo sapiens
How it was run: as §1

Renal cancer cell lines = experiment: NCI anticancer screen, SRB assay, panel summary; conditions: Homo sapiens
How it was run: as §1

SW-620 (colon) = experiment: NCI anticancer screen, SRB assay, 48 h; conditions: Homo sapiens
How it was run: as §1

UO-31 (renal) = experiment: NCI anticancer screen, SRB assay, 48 h; conditions: Homo sapiens
How it was run: as §1

RXF 393 (renal) = experiment: NCI anticancer screen, SRB assay, 48 h; conditions: Homo sapiens
How it was run: as §1

OVCAR-4 (ovarian) = experiment: NCI anticancer screen, SRB assay, 48 h; conditions: Homo sapiens
How it was run: as §1

A498 (renal) = experiment: NCI anticancer screen, SRB assay, 48 h; conditions: Homo sapiens
How it was run: as §1

SF-295 (CNS) = experiment: NCI anticancer screen, SRB assay, 48 h; conditions: Homo sapiens
How it was run: as §1

HCT-116 (colon) = experiment: NCI anticancer screen, SRB assay, 48 h; conditions: Homo sapiens
How it was run: as §1

PC-3 (prostate) = experiment: NCI anticancer screen, SRB assay, 48 h; conditions: Homo sapiens
How it was run: as §1

U251 (CNS) = experiment: NCI anticancer screen, SRB assay, 48 h; conditions: Homo sapiens
How it was run: as §1

[6] = test system: NCI-H322M (non-small cell lung); experiment: NCI anticancer screen, SRB assay, 48 h; conditions: Homo sapiens
How it was run: as §1

786-0 (renal) = experiment: NCI anticancer screen, SRB assay, 48 h; conditions: Homo sapiens
How it was run: as §1

MCF7 (breast) = experiment: NCI anticancer screen, SRB assay, 48 h; conditions: Homo sapiens
How it was run: as §1

MDA-MB-435 (melanoma) = experiment: NCI anticancer screen, SRB assay, 48 h; conditions: Homo sapiens
How it was run: as §1

SK-MEL-5 (melanoma) = experiment: NCI anticancer screen, SRB assay, 48 h; conditions: Homo sapiens
How it was run: as §1

[7] = test system: A549/ATCC (non-small cell lung); experiment: NCI anticancer screen, SRB assay, 48 h; conditions: Homo sapiens
How it was run: as §1

SK-MEL-28 (melanoma) = experiment: NCI anticancer screen, SRB assay, 48 h; conditions: Homo sapiens
How it was run: as §1

[8] = test system: RPMI-8226 (leukemia cell line); experiment: NCI anticancer screen, SRB assay, 48 h; conditions: Homo sapiens
How it was run: as §1

[9] = 48 h exposure, SRB, read-out: GI50
[10] = read-out: pGI50 (-log of molar concentration causing 50% inhibition of net cell growth) (converted)

`COc1cc(/C=C/C(=O)c2cccc(-n3cc(-c4cc(OC)c(OC)c(OC)c4)[nH]c3=O)c2)cc(OC)c1OC` [5d, 4-(3,4,5-trimethoxyphenyl)-1-3-[(E)-3-(3,4,5-trimethoxyphenyl)-2-propenoyl]phenyl-2,3-dihydro-1H-2-imidazolone] was tested, and the GI50 ([1]; Melanoma panel, log of concentration in mol/L causing 50% inhibition of net cell growth, read-out: mean graph midpoint (MG_MID) of Log10 GI50 (converted)) was 2.04 µM, the GI50 ([1]; nine melanoma cancer cell lines, exposure at least 48 hrs, read-out: GI50, range over the panel) was 1.23 to 3.02 µM and the “mean graph midpoint (MG_MID) of Log10 LC50” value ([1]; Melanoma panel, log of concentration leading to 50% net cell death) was 4.67. For the same compound, the GI50 (Breast cancer cell lines; Breast panel, log of concentration in mol/L causing 50% inhibition of net cell growth, read-out: mean graph midpoint (MG_MID) of Log10 GI50 (converted)) was 3.98 µM, the LC50 (Breast cancer cell lines; Breast panel, log of concentration leading to 50% net cell death, read-out: mean graph midpoint (MG_MID) of Log10 LC50 (converted)) was 45.7 µM and the GI50 (Breast cancer cell lines; five breast cancer cell lines, exposure at least 48 hrs, read-out: GI50, range over the panel) was 0.47 to 4.19 µM. It also gave a GI50 ([2]; Non-small cell lung panel, log of concentration in mol/L causing 50% inhibition of net cell growth, read-out: mean graph midpoint (MG_MID) of Log10 GI50 (converted)) of 13.8 µM, a GI50 ([2]; nine non-small cell lung cancer cell lines, exposure at least 48 hrs, read-out: GI50, range over the panel) of 1.05 to 14.4 µM and a GI50 ([3]; Homo sapiens, log of concentration in mol/L causing 50% inhibition of net cell growth, read-out: mean graph midpoint (MG_MID) of Log10 GI50 (converted)) of 2.63 µM. The LC50 ([3]; Homo sapiens, log of concentration leading to 50% net cell death, read-out: mean graph midpoint (MG_MID) of Log10 LC50 (converted)) was no less than 100 µM, the “mean graph midpoint (MG_MID) of Log10 TGI” value ([3]; log of concentration resulting in total inhibition of net cell growth) was 4.73 and the “mean graph midpoint (MG_MID) of Log10 LC50” value (CNS cancer cell lines; CNS panel, log of concentration leading to 50% net cell death) was 4.29. The GI50 (CNS cancer cell lines; CNS panel, log of concentration in mol/L causing 50% inhibition of net cell growth, read-out: mean graph midpoint (MG_MID) of Log10 GI50 (converted)) was 3.09 µM, the GI50 (CNS cancer cell lines; six CNS cancer cell lines, exposure at least 48 hrs, read-out: GI50, range over the panel) was 1.23 to 4.96 µM and the GI50 ([4]; Ovarian panel, log of concentration in mol/L causing 50% inhibition of net cell growth, read-out: mean graph midpoint (MG_MID) of Log10 GI50 (converted)) was 2.95 µM. For the same compound, the LC50 ([4]; Ovarian panel, log of concentration leading to 50% net cell death, read-out: mean graph midpoint (MG_MID) of Log10 LC50 (converted)) was 75.9 µM, the GI50 ([4]; six ovarian cancer cell lines, exposure at least 48 hrs, read-out: GI50, range over the panel) was 1.48 to 5.12 µM and the GI50 ([5]; Leukemia panel, log of concentration in mol/L causing 50% inhibition of net cell growth, read-out: mean graph midpoint (MG_MID) of Log10 GI50 (converted)) was 0.38 µM. For the same compound, the LC50 ([5]; Leukemia panel, log of concentration leading to 50% net cell death, read-out: mean graph midpoint (MG_MID) of Log10 LC50 (converted)) was no less than 100 µM, the GI50 ([5]; two leukemia cancer cell lines (RPMI-8226 and K-562), exposure at least 48 hrs, read-out: GI50, range over the panel) was 0.23 to 0.59 µM and the “mean graph midpoint (MG_MID) of Log10 LC50” value (Colon cancer cell lines; Colon panel, log of concentration leading to 50% net cell death) was 4.19. For the same compound, the GI50 (Colon cancer cell lines; Colon panel, log of concentration in mol/L causing 50% inhibition of net cell growth, read-out: mean graph midpoint (MG_MID) of Log10 GI50 (converted)) was 1.91 µM, the GI50 (Colon cancer cell lines; seven colon cancer cell lines, exposure at least 48 hrs, read-out: GI50, range over the panel) was 0.74 to 1.92 µM and the GI50 (Renal cancer cell lines; Renal panel, log of concentration in mol/L causing 50% inhibition of net cell growth, read-out: mean graph midpoint (MG_MID) of Log10 GI50 (converted)) was 2.63 µM. For the same compound, the LC50 (Renal cancer cell lines; Renal panel, log of concentration leading to 50% net cell death, read-out: mean graph midpoint (MG_MID) of Log10 LC50 (converted)) was 27.5 µM, the GI50 (Renal cancer cell lines; eight renal cancer cell lines, exposure at least 48 hrs, read-out: GI50, range over the panel) was 0.96 to 20.3 µM and the GI50 (SW-620 (colon); [9]) was 1.03 µM. It also gave a GI50 (SW-620 (colon); [10]) of 1.02 µM, a GI50 (UO-31 (renal); [9]) of 0.96 µM and a GI50 (UO-31 (renal); [10]) of 0.955 µM. The GI50 (RXF 393 (renal); RXF 393, 48 h exposure, SRB, read-out: GI50) was 1.62 µM, the GI50 (RXF 393 (renal); RXF-393, read-out: pGI50 (-log of molar concentration causing 50% inhibition of net cell growth) (converted)) was 1.62 µM and the GI50 (OVCAR-4 (ovarian); [9]) was 3.77 µM. The GI50 (OVCAR-4 (ovarian); [10]) was 3.8 µM, the GI50 (A498 (renal); [9]) was 20.3 µM and the GI50 (A498 (renal); [10]) was 20.4 µM. It also gave a GI50 (SF-295 (CNS); [9]) of 4.96 µM, a GI50 (SF-295 (CNS); [10]) of 5.01 µM and a GI50 (HCT-116 (colon); [9]) of 0.74 µM. For the same compound, the GI50 (HCT-116 (colon); [10]) was 0.741 µM, the GI50 (PC-3 (prostate); PC-3, read-out: pGI50 (-log of molar concentration causing 50% inhibition of net cell growth) (converted)) was 2.63 µM and the GI50 (PC-3 (prostate); one prostate cancer cell line (PC-3), exposure at least 48 hrs, read-out: GI50) was 2.63 µM. The GI50 (U251 (CNS); U-251, 48 h exposure, SRB, read-out: GI50) was 1.23 µM, the GI50 (U251 (CNS); U-251, read-out: pGI50 (-log of molar concentration causing 50% inhibition of net cell growth) (converted)) was 1.23 µM and the GI50 [6, 9] was 3.61 µM. For the same compound, the GI50 [6, 10] was 3.63 µM, the GI50 (786-0 (renal); [9]) was 1.59 µM and the GI50 (786-0 (renal); [10]) was 1.58 µM. The GI50 (MCF7 (breast); [9]) was 0.47 µM, the GI50 (MCF7 (breast); [10]) was 0.468 µM and the GI50 (MDA-MB-435 (melanoma); [9]) was 2.11 µM. For the same compound, the GI50 (MDA-MB-435 (melanoma); [10]) was 2.09 µM, the GI50 (SK-MEL-5 (melanoma); [9]) was 2.76 µM and the GI50 (SK-MEL-5 (melanoma); [10]) was 2.75 µM. It also gave a GI50 [7, 9] of 3.03 µM, a GI50 [7, 10] of 3.02 µM and a GI50 (SK-MEL-28 (melanoma); [9]) of 1.61 µM. For the same compound, the GI50 (SK-MEL-28 (melanoma); [10]) was 1.62 µM, the GI50 [8, 9] was 0.23 µM and the GI50 [8, 10] was 0.229 µM.
